Assay results from US10301305B2 (priority 2014, dated 2019).
Structures can show the parent of a compound that is named as a salt. Where two headings read alike, the source gives them in different places.

Tests used:
Format in all cases: biochemical
[1] = molecular target: E. feacium DltA (Enterococcus faecium, UniProt Q3XZT7); assay: in vitro DltA activity assay (luminescence), E. faecium DltA
Procedure: (§1) The effect of the compounds of the invention on DltA enzymes has been based on the measure of their inhibition of DltA activity in vitro. To this end, recombinant proteins DltA were expressed and purified after cloning of the genes of S. aureus, E. faecalis, E. faecium and S. agalactiae as described thereafter. The capacity of the compounds of the invention to inhibit DltA enzymatic activity was assessed using the DltA assays as described below:
(§2) The dltA gene was amplified from chromosomal DNA of S. aureus, E. faecalis, E. faecium and S. agalactiae and introduced into E. coli BL21 (Invitrogen, Carlsbad, Calif.) following manufacturer's instruction. Bacteria were grown at 37° C. under aerobic conditions and isopropyl-beta-D-thiogalactopyranoside (IPTG) was added to 0.5-1 mM when OD600 of the bacterial culture had reached 0.5. After a further incubation for 3 hours, cells were harvested by centrifugation. Purification of the recombinant DltA protein was performed by affinity chromatography on nickel-nitrilotriacetic acid (Ni-NTA) column following manufacturer's instructions (Qiagen). Fractions containing recombinant DltA protein were adjusted to 50% glycerol and stored at −20° C. until use.
(§3) The binding potency of the inhibitors against DltA enzyme was assessed by IC50 determination in an in vitro DltA activity assay. The assay buffer “AB” contained 50 mM Hepes pH8.0, 10 mM MgCl2, 50 mM KCl, 0.012% Triton-X100, 10 mM DTT and 100 nM Myelin-basic protein. The following components were added in a white polystyrene Costar plate up to a final volume of 30 μL: 3 μL DMSO, or inhibitor dissolved in DMSO and 27 μL DltA enzyme in AB. After 30 min of pre-incubation at room temperature, 30 μL of Substrates mix in AB were added in each well to a final volume of 60 μL. This reaction mixture was then composed of DltA (produced in house from S. aureus, E. faecalis, E. faecium and S. agalactiae), 0.5 mM D-Alanine (Sigma), 0.5-5 μM ATP (Sigma) and 0.05 u/ml inorganic pyrophosphatase (Sigma) in assay buffer. After typically 1-2 hours of incubation at room temperature (conversion rate around 30%), 30 μL of the revelation mix were added to a final volume of 90 μL, including the following constituents at the respective final concentrations: 10000 u/ml luciferase (Sigma), 30 μM D-luciferin (Sigma), 100 μM N-acetylcysteamine (Aldrich). Luminescence intensity was immediately measured on a Fluostar Optima (BMG) (excitation 360 nm, emission 520 nm) and converted into inhibition percentages. For IC50 determinations (Inhibitory Concentration 50%) the inhibitor was added at 6 to 10 different concentrations and the related inhibitions were fitted to a classical Langmuir equilibrium model using XLFIT (IDBS).
(§4) For compounds interfering with the luminescent signal (quenching), the same experiment without DltA enzyme was performed to allow quenching determination and correction.

[2] = molecular target: E. feacalis DltA (Enterococcus faecalis, UniProt Q830N0); assay: in vitro DltA activity assay (luminescence), E. faecalis DltA
Procedure: as §1, §2, §3, §4

[3] = molecular target: S. aureus DltA (Staphylococcus aureus (strain NCTC 8325 / PS 47), UniProt Q2FZW6); assay: in vitro DltA activity assay (luminescence), S. aureus DltA
Procedure: as §1, §2, §3, §4

[4] = molecular target: S. Agalactiae DltA (Streptococcus agalactiae serotype III (strain NEM316), UniProt Q8VM67); assay: in vitro DltA activity assay (luminescence), S. agalactiae DltA
Procedure: as §1, §2, §3, §4

[5] = recombinant DltA, 30 min pre-incubation, 0.5 mM D-Alanine, 0.5-5 μM ATP, read-out: E. feacium DltA IC50
[6] = recombinant DltA, 30 min pre-incubation, 0.5 mM D-Alanine, 0.5-5 μM ATP, read-out: E. feacalis DltA IC50
[7] = recombinant DltA, 30 min pre-incubation, 0.5 mM D-Alanine, 0.5-5 μM ATP, read-out: S. aureus DltA IC50
[8] = recombinant DltA, 30 min pre-incubation, 0.5 mM D-Alanine, 0.5-5 μM ATP, read-out: S. Agalactiae DltA IC50

Chain of E. feacalis DltA (Q830N0 1-506): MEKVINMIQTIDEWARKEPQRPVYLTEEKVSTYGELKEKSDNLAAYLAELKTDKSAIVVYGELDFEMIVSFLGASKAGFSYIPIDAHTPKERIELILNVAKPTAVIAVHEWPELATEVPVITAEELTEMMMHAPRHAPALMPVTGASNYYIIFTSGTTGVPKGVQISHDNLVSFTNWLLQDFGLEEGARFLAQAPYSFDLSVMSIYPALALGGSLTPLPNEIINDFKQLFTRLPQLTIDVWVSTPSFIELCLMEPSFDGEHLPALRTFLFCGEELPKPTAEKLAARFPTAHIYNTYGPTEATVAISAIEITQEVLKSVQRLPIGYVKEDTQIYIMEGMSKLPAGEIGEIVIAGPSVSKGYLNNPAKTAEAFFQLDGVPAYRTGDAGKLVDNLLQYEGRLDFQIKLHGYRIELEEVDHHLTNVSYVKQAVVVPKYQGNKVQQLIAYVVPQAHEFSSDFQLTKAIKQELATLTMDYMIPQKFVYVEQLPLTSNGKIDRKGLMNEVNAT
Chain of E. feacium DltA (Q3XZT7 1-504): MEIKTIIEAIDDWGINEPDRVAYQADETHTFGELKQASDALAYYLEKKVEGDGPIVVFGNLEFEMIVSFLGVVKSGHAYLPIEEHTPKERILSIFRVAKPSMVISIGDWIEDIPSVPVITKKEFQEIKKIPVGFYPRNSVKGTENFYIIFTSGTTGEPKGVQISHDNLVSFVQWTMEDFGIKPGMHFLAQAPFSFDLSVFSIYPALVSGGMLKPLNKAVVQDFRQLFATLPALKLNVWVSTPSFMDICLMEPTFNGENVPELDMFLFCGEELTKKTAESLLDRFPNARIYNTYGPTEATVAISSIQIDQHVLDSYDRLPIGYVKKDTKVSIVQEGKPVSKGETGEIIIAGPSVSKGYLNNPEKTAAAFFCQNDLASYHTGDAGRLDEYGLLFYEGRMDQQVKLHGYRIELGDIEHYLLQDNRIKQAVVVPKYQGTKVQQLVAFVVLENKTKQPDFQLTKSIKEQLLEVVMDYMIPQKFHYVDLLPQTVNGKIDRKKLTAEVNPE

SMILES	IC50 [1, 5]	IC50 [2, 6]	IC50 [3, 7]	IC50 [4, 8]	IC50 [1]	IC50 [2]	IC50 [3]	IC50 [4]
CN(CCN1CCCC1)c1cc(-c2ccc3c(c2)ncn3C2CCCCC2)c2nc[nH]c2c1C(N)=O [Example 127, 1′-Cyclohexyl-6-[methyl-(2-pyrrolidin-1-yl-ethyl)-amino]-1H,1′H-[4,5′]bibenzimidazolyl-7-carboxamide]	18 nM	2.9 nM	25 nM	140 nM				
CN(C)CCN(C)c1cc(-c2ccc3c(c2)ncn3C2CCC(F)(F)CC2)c2nc[nH]c2c1C(N)=O [Example 161, 1′-(4,4-Difluoro-cyclohexyl)-6-[(2-dimethylamino-ethyl)-methyl-amino]-1H,1′H-[4,5′]bibenzimidazolyl-7-carboxamide]	69 nM	8.1 nM	13 nM	1200 nM				
NC(=O)c1c(OC[C@H]2CCCN2)cc(-c2ccc3c(c2)ncn3[C@@H]2CCCC[C@H]2F)c2nc[nH]c12 [Example 214, 7-[1-[(1R,2R)-2-fluorocyclohexyl]benzimidazol-5-yl]-5-[[(2R)-pyrrolidin-2-yl]methoxy]-3H-benzimidazole-4-carboxamide methanesulfonic acid salt]					32 nM	4 nM	4 nM	390 nM
CN1CCC[C@@H]1COc1cc(-c2cnc3c(c2)CCCO3)c2nc[nH]c2c1C(N)=O [Example 210, 7-(3,4-dihydro-2H-pyrano[2,3-b]pyridin-6-yl)-5-[[(2R)-1-methylpyrrolidin-2-yl]methoxy]-3H-benzimidazole-4-carboxamide methanesulfonic acid salt]	36 nM	5.1 nM	6.2 nM	150 nM				
NC(=O)c1c(N2CC3CNCC3C2)cc(-c2ccc3c(c2)ncn3C2CCCCC2)c2nc[nH]c12 (stereo not shown) [Example 65, 1′-Cyclohexyl-6-(hexahydro-pyrrolo[3,4-c]pyrrol-2-yl)-1H,1′H-[4,5′]bibenzimidazolyl-7-carboxylic acid amide hydrochloride]	140 nM	36 nM	66 nM	1800 nM				
OCC1(CO)CCN(c2cc(-c3ccc4c(c3)ncn4C3CCCCC3)c3nc[nH]c3c2)CC1 [Example 34, [1-(1′-Cyclohexyl-1H,1′H-[4,5′]bibenzimidazolyl-6-yl)-4-hydroxymethyl-piperidin-4-yl]-methanol]	170 nM	79 nM	110 nM	380 nM				
CN(C)CCN(C)c1cc(-c2ccc3c(c2)ncn3CC(F)F)c2nc[nH]c2c1C(N)=O [Example 163, 1′-(2,2-Difluoro-ethyl)-6-[(2-dimethylamino-ethyl)-methyl-amino]-1H,1′H-[4,5′]bibenzimidazolyl-7-carboxamide]	34 nM	5.4 nM	14 nM	780 nM				
CCn1cnc2cc(-c3cc(OCCN(C)C)c(C(N)=O)c4[nH]cnc34)ccc21 [Example 198, 6-(2-Dimethylamino-ethoxy)-1′-ethyl-1H,1′H-[4,5′]]bibenzimidazolyl-7-carboxamide methanesulfonic acid salt]				1400 nM				
CN(C)CCN(C)c1cc(-c2cncc(C3CC3)c2)c2nc[nH]c2c1C(N)=O [Example 202, 4-(5-cyclopropylpyridin-3-yl)-6-((2-(dimethylamino)ethyl)-(methyl)amino)-1H-benzo[d]imidazole-7-carboxamide]	190 nM	95 nM	110 nM	2000 nM				
OCC1(CO)CCN(c2cc3[nH]cnc3c(-c3ccc4c(c3)ncn4C3CCCCC3)n2)CC1 [Example 20, {1-[4-(1-Cyclohexyl-1H-benzimidazol-5-yl)-1H-imidazo[4,5-c]pyridin-6-yl]-4-hydroxymethyl-piperidin-4-yl}-methanol]	170 nM	56 nM	12 nM	290 nM				
CN(C)CCN(C)c1cc(-c2ccc3c(c2)ncn3C2CCCOC2)c2nc[nH]c2c1C(N)=O (stereo not shown) [Example 123, 6-[(2-dimethylamino-ethyl)-methyl-amino]-1′-(tetrahydro-pyran-3-yl)-1H,1′H-[4,5′]bibenzimidazolyl-7-carboxamide]	41 nM	8.2 nM	6.9 nM	970 nM				
CN1CCN(c2cc(-c3ccc4c(c3)ncn4C3CCCCC3)c3nc[nH]c3c2C(N)=O)CC1 [Example 106, 1′-Cyclohexyl-6-(4-methyl-piperazin-1-yl)-1H,1′H-[4,5′]bibenzimidazolyl-7-carboxamide]	76 nM	18 nM	34 nM	500 nM				
N#Cc1c(N2CCC(CO)(CO)CC2)cc(-c2ccc3c(c2)ncn3C2CCCCC2)c2nc[nH]c12 [Example 61, 6-(4,4-Bis-hydroxymethyl-piperidin-1-yl)-1′-cyclohexyl-1H,1′H-[4,5′]bibenzimidazolyl-7-carbonitrile]	230 nM	110 nM	240 nM	4700 nM				
CN1CCCC(Oc2cc(-c3cnc4c(c3)CCCO4)c3nc[nH]c3c2C(N)=O)C1 (stereo not shown) [Example 208, 7-(3,4-dihydro-2H-pyrano[2,3-b]pyridin-6-yl)-5-[(1-methyl-3-piperidyl)oxy]-3H-benzimidazole-4-carboxamide methanesulfonic acid salt]	280 nM	61 nM	230 nM	1900 nM				
O=[N+]([O-])c1c(N2CC[C@H](CO)[C@@H](O)C2)cc(-c2ccc3c(c2)ncn3C2CCCCC2)c2nc[nH]c12 [Example 44, (3R,4R)-1-(1′-Cyclohexyl-7-nitro-1H,1′H-[4,5′]bibenzimidazolyl-6-yl)-4-hydroxymethyl-piperidin-3-ol]	96 nM	71 nM	49 nM	1500 nM				
CN(CCO)c1cc(-c2ccc3c(c2)ncn3C2CCCCC2)c2nc[nH]c2c1C#N [Example 92]	600 nM	240 nM	190 nM	8200 nM				
CN(CCN1CCCC1)c1cc(-c2cnc3c(c2)CCCO3)c2nc[nH]c2c1C(N)=O [Example 181, 7-(3,4-Dihydro-2H-pyrano[2,3-b]pyridin-6-yl)-5-[methyl-(2-pyrrolidin-1-yl-ethyl)-amino]-3H-benzimidazole-4-carboxamide]	160 nM	9.2 nM	51 nM	180 nM				
NC(=O)c1c(N2CCC(CCO)C2)cc(-c2ccc3c(c2)ncn3C2CCCCC2)c2nc[nH]c12 (stereo not shown) [Example 77, 1′-Cyclohexyl-6-[3-(2-hydroxy-ethyl)-pyrrolidin-1-yl]-1H,1′H-[4,5′]bibenzimidazolyl-7-carboxamide]	110 nM	41 nM	77 nM	1300 nM				
CN(C)C1CCCN(c2cc(-c3cnc4c(c3)CCCO4)c3nc[nH]c3c2C(N)=O)C1 (stereo not shown) [Example 222, 7-(3,4-dihydro-2H-pyrano[2,3-b]pyridin-6-yl)-5-[3-(dimethylamino)-1-piperidyl]-3H-benzimidazole-4-carboxamide]	67 nM	9 nM	47 nM	180 nM				
NC(=O)c1c(F)cc(-c2ccc3c(c2)ncn3C2CCCCC2)c2nc[nH]c12 [Example 63, 1′-Cyclohexyl-6-fluoro-1H,1′H-[4,5′]bibenzimidazolyl-7-carboxamide]	83 nM	43 nM	49 nM	2000 nM				
C[C@H]1CCCC(n2cnc3cc(-c4cc(N(C)CCN(C)C)c(C(N)=O)c5[nH]cnc45)ccc32)C1 (mixture of isomers) [Example 136]			5.7 nM	360 nM				
